According to patent publication US8796249B2, “TGR5 modulators and methods of use thereof” (Intercept Pharmaceuticals, Inc., priority 2008, dated 2014):
Several values for one entry are separate records, joined by “and”; a condition that tells them apart may be missing. Equal values may be shown once. Where a name gives a salt, the structure may show the parent alone. Read-outs that look alike come from different tables or passages of the source.

What was measured:
LXRα = target: T1, LXRα (Homo sapiens, UniProt Q13133); experiment: LXR coactivator recruitment (alphascreen); type: biochemical; details: ref standard T0901317
T1 sequence (Q13133 1-447): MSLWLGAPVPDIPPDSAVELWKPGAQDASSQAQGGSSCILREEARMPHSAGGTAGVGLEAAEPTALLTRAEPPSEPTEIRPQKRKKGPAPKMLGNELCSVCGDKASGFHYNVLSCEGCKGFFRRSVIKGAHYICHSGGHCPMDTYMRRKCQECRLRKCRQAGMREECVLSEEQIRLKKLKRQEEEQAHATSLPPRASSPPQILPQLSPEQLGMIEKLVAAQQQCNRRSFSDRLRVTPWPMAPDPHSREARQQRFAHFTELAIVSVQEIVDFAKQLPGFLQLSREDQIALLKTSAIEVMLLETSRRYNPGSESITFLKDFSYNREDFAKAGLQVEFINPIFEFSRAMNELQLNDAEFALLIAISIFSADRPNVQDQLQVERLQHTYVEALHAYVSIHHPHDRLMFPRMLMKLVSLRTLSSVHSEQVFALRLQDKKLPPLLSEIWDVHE
Protocol: (§1) The selectivity of compounds of the invention was evaluated using assay methods known in the art. Specifically, the following assay methods were used: • FXR and LXR: Coactivator Recruitment (alphascreen); • TGR5: cAMP level on human intestinal cell line (NCI-H716); • PXR: Ligands Competition assay (Binding Assay) • CAR: Coactivator Recruitment (Lanthascreen)

hTGR5 [1] = target: T2, hTGR5 (Homo sapiens, UniProt Q8TDU6); experiment: FRET-cAMP on TGR5 over-expressing HEH293 cells; type: cell-based
T2 sequence (Q8TDU6 1-330): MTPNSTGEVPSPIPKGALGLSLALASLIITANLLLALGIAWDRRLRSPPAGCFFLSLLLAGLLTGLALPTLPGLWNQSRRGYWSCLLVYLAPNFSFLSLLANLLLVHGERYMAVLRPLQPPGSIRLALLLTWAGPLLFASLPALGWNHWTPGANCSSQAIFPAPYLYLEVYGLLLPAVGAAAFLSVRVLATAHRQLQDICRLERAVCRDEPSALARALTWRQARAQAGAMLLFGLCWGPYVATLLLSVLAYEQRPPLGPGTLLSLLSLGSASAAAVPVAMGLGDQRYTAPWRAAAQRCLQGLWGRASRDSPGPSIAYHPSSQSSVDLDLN
Protocol: Assays were performed in triplicate or quadruplicate for each condition. EC50 values were determined by probit analysis. […] After subtracting the average value of the basal (vehicle-treated) condition, values were applied to EC50 and/or efficacy determinations. Calculation of average EC50 and comparison of the EC50 between different compounds were done after transformation to logarithms.

hFXR = target: T3, hFXR (Homo sapiens, UniProt Q96RI1); experiment: Alphascreen coactivator recruitment assay on hFXR; type: biochemical
T3 sequence (Q96RI1 1-486): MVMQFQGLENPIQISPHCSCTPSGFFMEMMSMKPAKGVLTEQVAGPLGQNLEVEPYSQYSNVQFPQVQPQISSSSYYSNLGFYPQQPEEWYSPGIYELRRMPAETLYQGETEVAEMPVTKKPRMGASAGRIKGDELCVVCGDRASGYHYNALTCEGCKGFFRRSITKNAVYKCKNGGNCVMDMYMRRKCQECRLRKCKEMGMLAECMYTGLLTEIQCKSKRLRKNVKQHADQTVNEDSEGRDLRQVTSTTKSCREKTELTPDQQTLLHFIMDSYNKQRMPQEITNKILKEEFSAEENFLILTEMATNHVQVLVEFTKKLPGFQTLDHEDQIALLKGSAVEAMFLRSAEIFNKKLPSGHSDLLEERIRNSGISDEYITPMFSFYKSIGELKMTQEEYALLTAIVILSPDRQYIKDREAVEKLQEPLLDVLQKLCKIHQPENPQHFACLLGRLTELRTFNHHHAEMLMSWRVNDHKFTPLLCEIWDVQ
Protocol: as §1

CAR = target: T4, CAR (Homo sapiens, UniProt Q14994); experiment: CAR coactivator recruitment (Lanthascreen); type: biochemical
T4 sequence (Q14994 1-352): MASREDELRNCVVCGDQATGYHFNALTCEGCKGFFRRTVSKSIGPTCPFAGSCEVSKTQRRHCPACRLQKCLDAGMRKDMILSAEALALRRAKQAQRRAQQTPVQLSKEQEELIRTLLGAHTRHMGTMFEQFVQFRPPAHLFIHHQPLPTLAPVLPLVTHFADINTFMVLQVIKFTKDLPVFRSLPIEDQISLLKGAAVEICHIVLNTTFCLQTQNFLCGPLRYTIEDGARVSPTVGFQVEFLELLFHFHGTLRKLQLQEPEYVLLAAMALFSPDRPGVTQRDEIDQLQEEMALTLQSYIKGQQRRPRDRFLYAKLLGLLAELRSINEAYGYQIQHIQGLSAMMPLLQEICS
Protocol: as §1

[2] = 1-Octanol/water partition coefficient (shake-flask); type: physicochemical; details: ionized species, pH 8
Protocol: Since the sulphate and sulphonated analogues are always ionised at all pH values the octanol/water partition coefficient was measured for all molecules in ionized form. 1-Octanol/water partition coefficient (log P) was evaluated using a conventional shake-flask procedure. […] The aqueous buffer was previously pre-saturated with 1-octanol, 5 ml of 1-octanol pre-saturated with water was then added and the samples were left to equilibrate for 2 weeks under continuous stirring at room temperature After centrifugation the two phases were carefully separated. BA concentration in the water phase was measured with HPLC-ESI ? MS/MS using C18 column (150 mm×2 mm i.d., 4 μm) and, as mobile phases, water containing 15 mM acetic acid pH 5 and acetonitrile. The flow rate was 150 μal/min and the column was maintained at 45° C. The mass spectrometry acquisition was performed in the multiple reaction monitoring mode using the ESI source in negative ionization.

hTGR5 [3] = target: T2, hTGR5; experiment: Transactivation assay (CRE-driven luciferase reporter) on hTGR5; type: cell-based
Protocol: CHO cells were plated in 96-well plates at a density of 3.5×10^4 cells/well, cultured for 24 h, and then transfected with 150 ng of human (h) TGR5 expression plasmid (pCMVSPORT6/hTGR5) and 100 ng of cAMP-responsive element (CRE)-driven luciferase reporter plasmid (pCRE-Luc) in each well using Lipofectamine 2000 reagent (Invitrogen) according to the manufacturer's instructions. After 6 h incubation, cells were washed once with phosphate-buffered saline (PBS) and medium was exchanged for DMEM containing 0.1% (w/v) bovine serum albumin (BSA). After incubation for another 18 h, cells were treated for 5 h with different concentrations of each compound in fresh DMEM containing 0.1% (w/v) BSA.
For β-galactosidase assays, 10 μl of cell lysate was mixed with 100 μl of Buffer Z [60 mM Na2HPO4, 10 mM KCl, 1 mM MgSO4, 50 mM β-mercaptoethanol and 0.75 mg/ml o-nitrophenyl-β-D-galactopyranoside (ONPG)] and incubated at 37° C. for 0.5-3 h. Reactions were stopped by adding 50 μl of Stop buffer (1M Na2CO3) and the optical density at 420 nm was determined.
EC50 values were determined by probit analysis.

[4] = NR selectivity table, coactivator recruitment (alphascreen), ref standard CDCA, read-out: FXR EC50
[5] = Table 1, reference standard CDCA, read-out: Alphascreen Assay hFXR EC50

Row | Compound | LXRα EC50 (LXRα) | EC50 (hTGR5 [1]) [nM] | EC50 (hFXR; [4]) [nM] | EC50 (hFXR; [5]) [nM] | EC50 (CAR) [nM] | LogPA- (1-octanol-water partition coefficient) [2] | EC50 (hTGR5 [3]) [nM] | LogPA- (1-octanol-water partition coefficient) ([2]; Sodium Salt)
1 | CCC1C(O)C2C3CCC(C(C)CC(C)OS(=O)(=O)O)C3(C)CCC2C2(C)CCC(O)CC12 [Compound 2A, 3α,7α,23-trihydroxy-6α-ethyl-23(S)-methyl-24-nor-5β-cholan-23-sulfate Sodium Salt] | No | 25 | 140 | 145 ± 50 | 84000 | 2.3 | 1200 | –
2 | CC[C@H]1[C@@H](O)[C@@H]2[C@H](C[C@H](O)[C@]3(C)[C@@H]([C@H](C)CCCS(=O)(=O)[O-])CC[C@@H]23)[C@@]2(C)CC[C@@H](O)C[C@@H]12.[Na+] [Compound 3A, 3α,7α,12α-trihydroxy-6α-ethyl-5β-cholan-24-sulfonate Sodium Salt] | No | 11 | 7000 | 7000 ± 3000 | > 250000 | – | 600 | 0.71 and 0.7
